Results: PubChem BioAssay AID1963443 (Molecular Pharmacology Branch, DTP, NCI, 2024)
Values joined by “and” are separate entries in the source; they are usually repeats but may differ in a detail not shown here. Identical values can stand only once.

Test system: MDA-MB-231 complex spheroids, growth inhibition
Assay: Anticancer human tumor MDA-MB-231 cell line growth inhibition [Asc];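 note: spheroids exposed to compounds for 7 days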
Conditions: for viability, T/C: stronger effect = lower value
Procedure, shortened: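 Stromal components (HUVEC and hMSC) are co-assembled with the cancer cells into multicellular spheroids. Drugs are then added singly or paired, at concentrations falling by half-log increments from a clinically achievable maximum, capped at 10 microM without known Cmax.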

[1] = curve of first compound, second compound 0.01 µM
[2] = curve of first compound, second compound 0.0316 µM
[3] = curve of first compound, second compound 0.1 µM
[4] = curve of first compound, second compound 0.316 µM
[5] = curve of first compound, second compound 1 µM
[6] = second compound 0.01 µM, first compound 0.0316 µM
[7] = second compound 0.01 µM, first compound 0.1 µM
[8] = second compound 0.01 µM, first compound 0.316 µM
[9] = second compound 0.01 µM, first compound 1 µM
[10] = second compound 0.0316 µM, first compound 0.0316 µM
[11] = second compound 0.0316 µM, first compound 0.1 µM
[12] = second compound 0.0316 µM, first compound 0.316 µM
[13] = second compound 0.0316 µM, first compound 1 µM
[14] = second compound 0.1 µM, first compound 0.0316 µM
[15] = second compound 0.1 µM, first compound 0.1 µM
[16] = second compound 0.1 µM, first compound 0.316 µM
[17] = second compound 0.1 µM, first compound 1 µM
[18] = second compound 0.316 µM, first compound 0.0316 µM
[19] = second compound 0.316 µM, first compound 0.1 µM
[20] = second compound 0.316 µM, first compound 0.316 µM
[21] = second compound 0.316 µM, first compound 1 µM
[22] = second compound 1 µM, first compound 0.0316 µM
[23] = second compound 1 µM, first compound 0.1 µM
[24] = second compound 1 µM, first compound 0.316 µM
[25] = second compound 1 µM, first compound 1 µM

`O=C(c1ccc(F)c(F)c1Nc1ccc(I)cc1F)N1CC(O)([C@@H]2CCCCN2)C1` + CNC(C)C(=O)NC1CN(S(=O)(=O)c2cccc(S(=O)(=O)N3CCC4CCC(C(=O)NC(c5ccccc5)c5ccccc5)N4C(=O)C(NC(=O)C(C)NC)C3)c2)CCC2CCC(C(=O)NC(c3ccccc3)c3ccccc3)N2C1=O gave an IC50 [1] of under 3.16 nM, an IC50 [2] of under 3.16 nM and an IC50 [3] of under 3.16 nM. It also gave an IC50 [4] of under 3.16 nM, an IC50 [5] of under 3.16 nM and a viability, T/C (second compound 0.01 µM, first compound 0.00316 µM) of 1.58%. The viability, T/C (second compound 0.01 µM, first compound 0.01 µM) was 1.82%, the viability, T/C [6] was 1.57% and the viability, T/C [7] was 1.24%. It also gave a viability, T/C [8] of 0.45%, a viability, T/C [9] of 0.19% and a viability, T/C (second compound 0.0316 µM, first compound 0.00316 µM) of 2%. For the same compound, the viability, T/C (second compound 0.0316 µM, first compound 0.01 µM) was 1.64%, the viability, T/C [10] was 1.23% and the viability, T/C [11] was 0.72%. For the same compound, the viability, T/C [12] was 0.39%, the viability, T/C [13] was 0.17% and the viability, T/C (second compound 0.1 µM, first compound 0.00316 µM) was 0.99%. The viability, T/C (second compound 0.1 µM, first compound 0.01 µM) was 0.94%, the viability, T/C [14] was 0.88% and the viability, T/C [15] was 0.74%. It also gave a viability, T/C [16] of 0.5%, a viability, T/C [17] of 0.25% and a viability, T/C (second compound 0.316 µM, first compound 0.00316 µM) of 1.14%. For the same compound, the viability, T/C (second compound 0.316 µM, first compound 0.01 µM) was 0.91%, the viability, T/C [18] was 0.9% and the viability, T/C [19] was 1.27%. For the same compound, the viability, T/C [20] was 0.57%, the viability, T/C [21] was 0.2% and the viability, T/C (second compound 1 µM, first compound 0.00316 µM) was 1.64%. For the same compound, the viability, T/C (second compound 1 µM, first compound 0.01 µM) was 1.24%, the viability, T/C [22] was 1.11% and the viability, T/C [23] was 1.67%. For the same compound, the viability, T/C [24] was 1.13% and the viability, T/C [25] was 0.21%.
In the case of `C=CC(=O)N1CCN(c2nc(=O)n(-c3c(C)ccnc3C(C)C)c3nc(-c4c(O)cccc4F)c(F)cc23)C(C)C1` (centres undefined), the viability, T/C (compound 0.0316 µM) is reported as 101% and 102% and 103%, the viability, T/C (compound 0.1 µM) is reported as 104% and 105% and 103% and the viability, T/C (compound 0.316 µM) is reported as 106% (2×) and 107%. The viability, T/C (compound 1 µM) was 107% and 109% and 111%, the viability, T/C (compound 3.16 µM) was 119% and 117% and 113% and the viability, T/C (compound 10 µM) was 119% and 121% and 110%. For the same compound, the IC50 (curve of compound) was over 10000 nM.
`C=C(F)C(=O)N1CCN(c2nc(OCC3CCCN3C)nc3c2CCN(c2cccc4cccc(Cl)c24)C3)CC1CC#N` (centres undefined) + CNC(C)C(=O)NC1CN(S(=O)(=O)c2cccc(S(=O)(=O)N3CCC4CCC(C(=O)NC(c5ccccc5)c5ccccc5)N4C(=O)C(NC(=O)C(C)NC)C3)c2)CCC2CCC(C(=O)NC(c3ccccc3)c3ccccc3)N2C1=O gave an IC50 [1] of under 31.6 nM, an IC50 [2] of under 31.6 nM and an IC50 [3] of under 31.6 nM. It also gave an IC50 [4] of under 31.6 nM, an IC50 [5] of under 31.6 nM and a viability, T/C [6] of 1.99%. For the same compound, the viability, T/C [7] was 2.81%, the viability, T/C [8] was 1.5% and the viability, T/C [9] was 1.02%. The viability, T/C (second compound 0.01 µM, first compound 3.16 µM) was 0.39%, the viability, T/C (second compound 0.01 µM, first compound 10 µM) was 0.09% and the viability, T/C [10] was 1.12%. For the same compound, the viability, T/C [11] was 2.63%, the viability, T/C [12] was 1.75% and the viability, T/C [13] was 1.07%. For the same compound, the viability, T/C (second compound 0.0316 µM, first compound 3.16 µM) was 0.75%, the viability, T/C (second compound 0.0316 µM, first compound 10 µM) was 0.93% and the viability, T/C [14] was 0.94%. The viability, T/C [15] was 1.79%, the viability, T/C [16] was 1.68% and the viability, T/C [17] was 0.86%. The viability, T/C (second compound 0.1 µM, first compound 3.16 µM) was 0.38%, the viability, T/C (second compound 0.1 µM, first compound 10 µM) was 0.08% and the viability, T/C [18] was 0.86%. The viability, T/C [19] was 1.12%, the viability, T/C [20] was 1.54% and the viability, T/C [21] was 1.37%. The viability, T/C (second compound 0.316 µM, first compound 3.16 µM) was 0.42%, the viability, T/C (second compound 0.316 µM, first compound 10 µM) was 0.08% and the viability, T/C [22] was 1.4%. The viability, T/C [23] was 1.56%, the viability, T/C [24] was 1.18% and the viability, T/C [25] was 1.49%. For the same compound, the viability, T/C (second compound 1 µM, first compound 3.16 µM) was 0.43% and the viability, T/C (second compound 1 µM, first compound 10 µM) was 0.98%.
With `COc1c(OCCCN2CCOCC2)ccc2c3n(c(=NC(=O)c4cnc(N)nc4)nc12)CCN3` the viability, T/C (compound 0.00316 µM) was 83.7% and 92% and 96.1%, the viability, T/C (compound 0.01 µM) was 85.2% and 80.5% and 92.2% and the viability, T/C (compound 0.0316 µM) was 64.8% and 66.8% and 75.9%. The viability, T/C (compound 0.1 µM) was 47.6% and 48.4% and 60%, the viability, T/C (compound 0.316 µM) was 36.6% and 36.7% and 45.5% and the viability, T/C (compound 1 µM) was 32% and 32.1% and 41.6%. The IC50 (curve of compound) was 82.5 nM and 91.6 nM and 226 nM.
`C#Cc1c(F)ccc2cc(O)cc(-c3ncc4c(N5CC6CCC(C5)N6)nc(OCC56CCCN5CC(F)C6)nc4c3F)c12` (centres undefined) + CCN1C(C(=O)NC23CCC(C(=O)O)(CC2)CC3)C(c2cccc(Cl)c2F)C2(C(=O)Nc3cc(Cl)ccc32)C12CCCCC2 was tested, and the IC50 (curve of first compound, second compound 0.03 µM) was over 10000 nM, the IC50 (curve of first compound, second compound 0.0949 µM) was 8440 nM and the IC50 (curve of first compound, second compound 0.3 µM) was over 10000 nM. The IC50 (curve of first compound, second compound 0.949 µM) was over 10000 nM, the IC50 (curve of first compound, second compound 3 µM) was 898 nM and the viability, T/C (second compound 0.03 µM, first compound 0.0316 µM) was 96.8%. For the same compound, the viability, T/C (second compound 0.03 µM, first compound 0.1 µM) was 96.5%, the viability, T/C (second compound 0.03 µM, first compound 0.316 µM) was 92.8% and the viability, T/C (second compound 0.03 µM, first compound 1 µM) was 74.9%. The viability, T/C (second compound 0.03 µM, first compound 3.16 µM) was 63.8%, the viability, T/C (second compound 0.03 µM, first compound 10 µM) was 55.1% and the viability, T/C (second compound 0.0949 µM, first compound 0.0316 µM) was 108%. For the same compound, the viability, T/C (second compound 0.0949 µM, first compound 0.1 µM) was 98.2%, the viability, T/C (second compound 0.0949 µM, first compound 0.316 µM) was 94.7% and the viability, T/C (second compound 0.0949 µM, first compound 1 µM) was 70.2%. For the same compound, the viability, T/C (second compound 0.0949 µM, first compound 3.16 µM) was 59.3%, the viability, T/C (second compound 0.0949 µM, first compound 10 µM) was 48.1% and the viability, T/C (second compound 0.3 µM, first compound 0.0316 µM) was 106%. The viability, T/C (second compound 0.3 µM, first compound 0.1 µM) was 107%, the viability, T/C (second compound 0.3 µM, first compound 0.316 µM) was 98.8% and the viability, T/C (second compound 0.3 µM, first compound 1 µM) was 72.5%. The viability, T/C (second compound 0.3 µM, first compound 3.16 µM) was 59.3%, the viability, T/C (second compound 0.3 µM, first compound 10 µM) was 48.5% and the viability, T/C (second compound 0.949 µM, first compound 0.0316 µM) was 108%. It also gave a viability, T/C (second compound 0.949 µM, first compound 0.1 µM) of 106%, a viability, T/C (second compound 0.949 µM, first compound 0.316 µM) of 103% and a viability, T/C (second compound 0.949 µM, first compound 1 µM) of 66.2%. For the same compound, the viability, T/C (second compound 0.949 µM, first compound 3.16 µM) was 61.5%, the viability, T/C (second compound 0.949 µM, first compound 10 µM) was 45.8% and the viability, T/C (second compound 3 µM, first compound 0.0316 µM) was 96.7%. For the same compound, the viability, T/C (second compound 3 µM, first compound 0.1 µM) was 90.5%, the viability, T/C (second compound 3 µM, first compound 0.316 µM) was 68.8% and the viability, T/C (second compound 3 µM, first compound 1 µM) was 47.4%. The viability, T/C (second compound 3 µM, first compound 3.16 µM) was 43.5% and the viability, T/C (second compound 3 µM, first compound 10 µM) was 36.4%.
